Target: T1, RET (Homo sapiens, UniProt P07949)
T1 construct: RET tyrosine kinase domain (human recombinant RET expressed in Sf9 insect cells)
T1 sequence (P07949 724-1016 limits assumed): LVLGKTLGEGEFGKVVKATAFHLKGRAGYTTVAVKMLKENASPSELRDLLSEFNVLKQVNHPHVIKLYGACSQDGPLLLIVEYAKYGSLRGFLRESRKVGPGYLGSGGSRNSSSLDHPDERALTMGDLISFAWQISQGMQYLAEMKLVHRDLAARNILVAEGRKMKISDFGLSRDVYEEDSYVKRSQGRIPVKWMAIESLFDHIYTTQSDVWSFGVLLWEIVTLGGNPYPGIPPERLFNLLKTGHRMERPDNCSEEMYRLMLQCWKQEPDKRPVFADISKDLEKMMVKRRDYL
Assay: luminescent ATP-to-ADP conversion kinase assay (IGF1Rtide substrate, […] ATP), in the dark
Format: biochemical

Compound: CC(C)n1nc(/N=N/c2ccccc2)c2c(N)ncnc21 [compound 4, E-4]
- IC50: 150 nM

Source: paper PMC4421829, “Design, Synthesis and Inhibitory Activity of Photoswitchable RET Kinase Inhibitors” (Scientific Reports, 2015)
